Data published in ChEMBL document CHEMBL5614372, “Advances in dual-targeting inhibitors of HDAC6 for cancer treatment” (Eur J Med Chem, 2024).
pIC50, pKi: −log10 of the molar value. Values belong to the molecule of their own block, whether it stands above or below them.

Assays:
Histone deacetylase 3 [1] = target: T1, Histone deacetylase 3 (Homo sapiens, UniProt O15379); test: Inhibition of HDAC3 (unknown origin)
[2] = target: T2, Protein deacetylase HDAC6 (Homo sapiens, UniProt Q9UBN7); test: Inhibition of HDAC6 (unknown origin)
T2 sequence (Q9UBN7 whole entry): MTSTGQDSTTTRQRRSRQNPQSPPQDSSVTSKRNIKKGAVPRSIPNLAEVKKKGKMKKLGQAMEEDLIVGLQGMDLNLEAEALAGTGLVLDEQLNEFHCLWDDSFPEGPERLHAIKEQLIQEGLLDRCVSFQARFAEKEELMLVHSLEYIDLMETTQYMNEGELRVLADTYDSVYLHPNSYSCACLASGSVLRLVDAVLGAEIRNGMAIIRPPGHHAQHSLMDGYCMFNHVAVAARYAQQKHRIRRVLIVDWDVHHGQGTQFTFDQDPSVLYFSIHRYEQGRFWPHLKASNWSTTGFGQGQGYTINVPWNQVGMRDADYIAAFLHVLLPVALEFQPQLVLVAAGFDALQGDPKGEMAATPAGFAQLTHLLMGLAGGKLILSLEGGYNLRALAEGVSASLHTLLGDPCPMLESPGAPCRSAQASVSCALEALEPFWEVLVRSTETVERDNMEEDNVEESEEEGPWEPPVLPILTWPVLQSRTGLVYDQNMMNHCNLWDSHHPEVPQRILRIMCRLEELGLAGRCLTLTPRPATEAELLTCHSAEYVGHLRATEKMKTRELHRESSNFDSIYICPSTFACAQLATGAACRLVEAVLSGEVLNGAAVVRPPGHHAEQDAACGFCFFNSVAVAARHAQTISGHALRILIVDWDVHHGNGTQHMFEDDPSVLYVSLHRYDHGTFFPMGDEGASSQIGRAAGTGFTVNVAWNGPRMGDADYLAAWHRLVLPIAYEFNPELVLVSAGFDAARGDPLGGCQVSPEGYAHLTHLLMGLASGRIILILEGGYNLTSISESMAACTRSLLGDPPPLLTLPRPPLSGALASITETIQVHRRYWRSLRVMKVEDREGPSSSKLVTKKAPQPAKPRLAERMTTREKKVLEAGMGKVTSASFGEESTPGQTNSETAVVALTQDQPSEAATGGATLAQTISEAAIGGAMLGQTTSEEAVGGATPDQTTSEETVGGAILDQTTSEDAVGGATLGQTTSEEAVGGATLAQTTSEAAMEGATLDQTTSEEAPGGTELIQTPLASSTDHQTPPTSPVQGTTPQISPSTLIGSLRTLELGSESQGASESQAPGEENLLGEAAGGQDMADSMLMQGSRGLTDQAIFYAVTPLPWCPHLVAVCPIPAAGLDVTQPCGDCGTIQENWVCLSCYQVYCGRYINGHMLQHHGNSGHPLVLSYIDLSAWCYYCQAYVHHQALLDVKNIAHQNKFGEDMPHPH

[3] = target: Steroid 17-alpha-hydroxylase/17,20 lyase (Homo sapiens, UniProt P05093); test: Inhibition of CYP17A1 (unknown origin); type: ADME
Histone deacetylase 8 = target: T3, Histone deacetylase 8 (Homo sapiens, UniProt Q9BY41); test: Inhibition of HDAC8 (unknown origin)
T3 sequence (Q9BY41 whole entry): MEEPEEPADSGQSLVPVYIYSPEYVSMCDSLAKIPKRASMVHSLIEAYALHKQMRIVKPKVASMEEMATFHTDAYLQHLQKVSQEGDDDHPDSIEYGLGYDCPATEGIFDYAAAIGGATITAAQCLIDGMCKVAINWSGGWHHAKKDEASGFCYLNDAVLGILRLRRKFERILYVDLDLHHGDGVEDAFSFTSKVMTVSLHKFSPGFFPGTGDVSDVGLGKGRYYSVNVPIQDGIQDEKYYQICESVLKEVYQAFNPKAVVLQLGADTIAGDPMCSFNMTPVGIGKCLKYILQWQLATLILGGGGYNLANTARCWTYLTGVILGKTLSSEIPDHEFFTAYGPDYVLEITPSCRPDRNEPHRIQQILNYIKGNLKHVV

[4] = target: cGMP-specific 3',5'-cyclic phosphodiesterase (Homo sapiens, UniProt O76074); test: Inhibition of PDE5A (unknown origin)
Histone deacetylase 2 = Histone deacetylase 2 (Homo sapiens, UniProt Q92769); test: Inhibition of HDAC2 (unknown origin)
[5] = target: High affinity cGMP-specific 3',5'-cyclic phosphodiesterase 9A (Homo sapiens, UniProt O76083); test: Inhibition of PDE9A (unknown origin)
Histone deacetylase 1 = Histone deacetylase 1 (Homo sapiens, UniProt Q13547); test: Inhibition of HDAC1 (unknown origin)
[6] = target: Estrogen receptor beta (Homo sapiens) (UniProt Q92731); test: Binding affinity to ERbeta (unknown origin) assessed as relative binding affinity by fluorescence polarization assay relative to control
[7] = target: Estrogen receptor (Homo sapiens) (UniProt P03372); test: Binding affinity to ERalpha (unknown origin) assessed as relative binding affinity by fluorescence polarization assay relative to control
Histone deacetylase 7 [8] = target: T4, Histone deacetylase 7 (Homo sapiens, UniProt Q8WUI4); test: Inhibition of human recombinant HDAC7 using fluorogenic HDAC substrate incubated for 20 mins by fluorescence based assay
Histone deacetylase 5 [9] = target: T5, Histone deacetylase 5 (Homo sapiens, UniProt Q9UQL6); test: Inhibition of human recombinant HDAC5 using fluorogenic HDAC substrate incubated for 20 mins by fluorescence based assay
Histone deacetylase 4 [10] = target: T6, Histone deacetylase 4 (Homo sapiens, UniProt P56524); test: Inhibition of human recombinant HDAC4 using fluorogenic HDAC substrate incubated for 20 mins by fluorescence based assay
[11] = target: T2, Protein deacetylase HDAC6; test: Inhibition of human recombinant HDAC6 using fluorogenic HDAC substrate incubated for 20 mins by fluorescence based assay
[12] = target: Serine/threonine-protein kinase B-raf (Homo sapiens, UniProt P15056); test: Inhibition of wild type B-RAF (unknown origin)
Histone deacetylase 3 [13] = target: T1, Histone deacetylase 3; test: Inhibition of human recombinant HDAC3 using fluorogenic HDAC substrate incubated for 20 mins by fluorescence based assay
Histone deacetylase 11 = Histone deacetylase 11 (Homo sapiens, UniProt Q96DB2); test: Inhibition of HDAC11 (unknown origin)
[14] = target: Phosphatidylinositol 4,5-bisphosphate 3-kinase catalytic subunit beta isoform (Homo sapiens, UniProt P42338); test: Inhibition of PI3Kbeta (unknown origin)
[15] = target: Phosphatidylinositol 4,5-bisphosphate 3-kinase catalytic subunit delta isoform (Homo sapiens, UniProt O00329); test: Inhibition of PI3Kdelta (unknown origin)
Histone deacetylase 4 [16] = target: T6, Histone deacetylase 4; test: Inhibition of HDAC4 (unknown origin)
[17] = target: Phosphatidylinositol 4,5-bisphosphate 3-kinase catalytic subunit gamma isoform (Homo sapiens, UniProt P48736); test: Inhibition of PI3Kgamma (unknown origin)
[18] = Inhibition of HSP90 (unknown origin) by fluorescence polarization assay; parameters: species or system Homo sapiens
[19] = target: T2, Protein deacetylase HDAC6; test: Inhibition of HDAC6 (unknown origin) extracted from baculovirus infected Sf9 insect cells using fluorescent peptide p53 (379 to 382 residues) RHKK(Ac)AMC as substrate by fluorescence based analysis
[20] = target: ALK tyrosine kinase receptor (Homo sapiens, UniProt Q9UM73); test: Inhibition of ALK (unknown origin) using poly[Glu:Tyr] (4:1) as substrate incubated for 2 hrs by [gamma-33P]ATP assay
A549 = test: Antitumor activity against human A549 cells xenografted in BALB/c nude mouse assessed as inhibition of tumor growth at 20 mg/kg, ip administered once daily for 21 days relative to control; type: functional; parameters: scale not given: the % may be the effect or the level left; settings: time 21 day
[21] = target: Serine/threonine-protein kinase PAK 3 (Homo sapiens, UniProt O75914); test: Inhibition of PAK3 (unknown origin)
[22] = target: Serine/threonine-protein kinase PAK 1 (Homo sapiens, UniProt Q13153); test: Inhibition of PAK1 (unknown origin)
[23] = target: Serine/threonine-protein kinase PAK 2 (Homo sapiens, UniProt Q13177); test: Inhibition of PAK2 (unknown origin)
Histone deacetylase 5 [24] = target: T5, Histone deacetylase 5; test: Inhibition of HDAC5 (unknown origin)
[25] = target: Glutamate [NMDA] receptor; test: Binding affinity to NMDA receptor (unknown origin) assessed as inhibition constant; type: protein-complex assay, Homo sapiens
[26] = target: Glutamate [NMDA] receptor (Homo sapiens) (UniProt Q05586+Q12879+Q13224+O15399+O60391+Q14957+Q8TCU5); test: Inhibition of NMDA receptor (unknown origin) at 10 uM relative to control; type: protein-complex assay
Histone deacetylase 7 [27] = target: T4, Histone deacetylase 7; test: Inhibition of HDAC7 (unknown origin)
Histone deacetylase 9 = Histone deacetylase 9 (Homo sapiens, UniProt Q9UKV0); test: Inhibition of HDAC9 (unknown origin)

Sequence of Histone deacetylase 1 (Q13547 whole entry): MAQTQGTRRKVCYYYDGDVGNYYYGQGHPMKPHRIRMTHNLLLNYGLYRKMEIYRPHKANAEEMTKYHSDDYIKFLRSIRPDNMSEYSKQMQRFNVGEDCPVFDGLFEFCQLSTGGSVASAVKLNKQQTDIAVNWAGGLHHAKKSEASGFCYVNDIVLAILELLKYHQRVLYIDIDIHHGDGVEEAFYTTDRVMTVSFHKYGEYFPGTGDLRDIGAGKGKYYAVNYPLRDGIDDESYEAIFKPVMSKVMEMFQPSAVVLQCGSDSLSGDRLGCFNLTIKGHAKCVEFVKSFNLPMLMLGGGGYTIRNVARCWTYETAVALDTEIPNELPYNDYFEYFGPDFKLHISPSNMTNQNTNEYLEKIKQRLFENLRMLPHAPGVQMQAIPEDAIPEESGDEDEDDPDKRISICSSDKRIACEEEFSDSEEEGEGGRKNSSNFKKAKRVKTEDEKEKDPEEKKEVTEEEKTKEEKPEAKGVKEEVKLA
T6 sequence (P56524 whole entry): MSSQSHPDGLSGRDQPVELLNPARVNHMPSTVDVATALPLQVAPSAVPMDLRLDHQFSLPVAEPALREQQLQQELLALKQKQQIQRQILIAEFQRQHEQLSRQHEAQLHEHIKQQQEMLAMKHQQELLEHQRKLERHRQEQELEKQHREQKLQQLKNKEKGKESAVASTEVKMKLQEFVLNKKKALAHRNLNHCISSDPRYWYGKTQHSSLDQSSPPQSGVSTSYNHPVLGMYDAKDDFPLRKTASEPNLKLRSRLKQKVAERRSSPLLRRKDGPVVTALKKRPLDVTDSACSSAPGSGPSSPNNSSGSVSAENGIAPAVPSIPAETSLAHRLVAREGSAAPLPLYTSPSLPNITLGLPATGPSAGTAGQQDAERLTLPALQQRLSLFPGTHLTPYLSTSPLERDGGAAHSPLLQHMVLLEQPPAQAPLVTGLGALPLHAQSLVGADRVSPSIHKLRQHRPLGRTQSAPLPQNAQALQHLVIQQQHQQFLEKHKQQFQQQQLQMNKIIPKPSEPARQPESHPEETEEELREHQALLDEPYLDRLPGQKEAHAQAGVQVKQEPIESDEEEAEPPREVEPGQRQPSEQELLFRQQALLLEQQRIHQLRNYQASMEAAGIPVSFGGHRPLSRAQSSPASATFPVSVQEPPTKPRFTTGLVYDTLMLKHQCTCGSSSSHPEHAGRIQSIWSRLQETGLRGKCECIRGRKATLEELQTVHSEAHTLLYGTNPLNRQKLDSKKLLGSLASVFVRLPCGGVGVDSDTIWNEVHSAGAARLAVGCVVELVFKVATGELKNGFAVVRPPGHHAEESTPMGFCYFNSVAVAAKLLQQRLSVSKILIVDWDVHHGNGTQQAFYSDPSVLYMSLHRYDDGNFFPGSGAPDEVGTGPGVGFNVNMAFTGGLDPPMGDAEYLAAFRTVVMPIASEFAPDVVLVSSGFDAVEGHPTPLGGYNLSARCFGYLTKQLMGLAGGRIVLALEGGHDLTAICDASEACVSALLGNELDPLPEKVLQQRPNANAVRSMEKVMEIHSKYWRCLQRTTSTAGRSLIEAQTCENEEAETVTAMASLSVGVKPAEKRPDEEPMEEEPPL
Sequence of Histone deacetylase 2 (Q92769 whole entry): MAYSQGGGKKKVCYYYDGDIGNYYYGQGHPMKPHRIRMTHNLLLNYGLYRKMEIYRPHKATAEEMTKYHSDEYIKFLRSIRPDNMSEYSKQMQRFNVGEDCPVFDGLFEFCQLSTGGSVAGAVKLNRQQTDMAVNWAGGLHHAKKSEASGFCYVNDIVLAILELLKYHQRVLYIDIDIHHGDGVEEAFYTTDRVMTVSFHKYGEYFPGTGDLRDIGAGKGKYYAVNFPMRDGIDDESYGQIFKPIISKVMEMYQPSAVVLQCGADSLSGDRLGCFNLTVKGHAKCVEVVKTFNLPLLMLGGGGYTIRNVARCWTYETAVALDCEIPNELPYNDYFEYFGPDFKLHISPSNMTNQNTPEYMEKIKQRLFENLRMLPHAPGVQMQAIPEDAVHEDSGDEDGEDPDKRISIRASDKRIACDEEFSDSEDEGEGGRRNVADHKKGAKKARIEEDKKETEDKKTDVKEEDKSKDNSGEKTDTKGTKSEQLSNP
T1 sequence (O15379 whole entry): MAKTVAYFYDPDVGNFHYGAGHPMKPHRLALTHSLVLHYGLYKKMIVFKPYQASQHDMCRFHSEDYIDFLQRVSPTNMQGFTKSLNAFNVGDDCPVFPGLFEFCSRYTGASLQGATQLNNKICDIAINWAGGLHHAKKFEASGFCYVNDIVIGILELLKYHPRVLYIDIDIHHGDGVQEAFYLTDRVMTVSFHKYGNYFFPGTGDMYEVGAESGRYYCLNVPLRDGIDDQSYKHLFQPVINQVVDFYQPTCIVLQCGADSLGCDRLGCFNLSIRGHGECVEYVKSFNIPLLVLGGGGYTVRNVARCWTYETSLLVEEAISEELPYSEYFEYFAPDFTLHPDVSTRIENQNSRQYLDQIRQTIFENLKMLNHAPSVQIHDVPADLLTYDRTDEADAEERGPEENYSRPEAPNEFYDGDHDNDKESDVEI
T5 sequence (Q9UQL6 whole entry): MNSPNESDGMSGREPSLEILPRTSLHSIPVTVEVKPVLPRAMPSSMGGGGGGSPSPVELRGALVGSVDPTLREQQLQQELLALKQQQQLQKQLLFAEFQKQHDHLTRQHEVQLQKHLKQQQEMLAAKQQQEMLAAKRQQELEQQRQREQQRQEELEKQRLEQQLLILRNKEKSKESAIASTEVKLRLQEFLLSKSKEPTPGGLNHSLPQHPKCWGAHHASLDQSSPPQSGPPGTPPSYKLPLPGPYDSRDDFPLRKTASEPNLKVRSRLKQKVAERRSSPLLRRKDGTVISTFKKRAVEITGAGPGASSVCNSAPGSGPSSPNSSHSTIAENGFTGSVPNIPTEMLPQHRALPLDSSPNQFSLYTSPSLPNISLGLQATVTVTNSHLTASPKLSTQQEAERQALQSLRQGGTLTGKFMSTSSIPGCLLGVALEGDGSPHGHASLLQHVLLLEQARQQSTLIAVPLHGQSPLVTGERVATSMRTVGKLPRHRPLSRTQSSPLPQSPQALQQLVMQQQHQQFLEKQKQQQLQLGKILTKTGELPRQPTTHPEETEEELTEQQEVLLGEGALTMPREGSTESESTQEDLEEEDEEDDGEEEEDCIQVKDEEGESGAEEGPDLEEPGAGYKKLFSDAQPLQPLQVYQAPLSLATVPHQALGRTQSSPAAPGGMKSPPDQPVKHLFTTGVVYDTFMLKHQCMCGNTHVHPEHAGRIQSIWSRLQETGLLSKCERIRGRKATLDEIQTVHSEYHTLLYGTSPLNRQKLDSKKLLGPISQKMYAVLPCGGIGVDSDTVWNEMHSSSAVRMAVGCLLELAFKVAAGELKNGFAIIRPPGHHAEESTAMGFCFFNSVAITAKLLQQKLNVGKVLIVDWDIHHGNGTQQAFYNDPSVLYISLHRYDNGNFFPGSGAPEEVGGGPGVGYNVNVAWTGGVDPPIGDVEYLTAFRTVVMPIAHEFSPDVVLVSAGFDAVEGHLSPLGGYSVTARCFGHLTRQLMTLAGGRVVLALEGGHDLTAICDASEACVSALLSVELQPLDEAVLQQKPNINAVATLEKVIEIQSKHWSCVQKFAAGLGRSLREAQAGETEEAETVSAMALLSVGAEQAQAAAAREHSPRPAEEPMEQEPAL
Sequence of High affinity cGMP-specific 3',5'-cyclic phosphodiesterase 9A (O76083 whole entry): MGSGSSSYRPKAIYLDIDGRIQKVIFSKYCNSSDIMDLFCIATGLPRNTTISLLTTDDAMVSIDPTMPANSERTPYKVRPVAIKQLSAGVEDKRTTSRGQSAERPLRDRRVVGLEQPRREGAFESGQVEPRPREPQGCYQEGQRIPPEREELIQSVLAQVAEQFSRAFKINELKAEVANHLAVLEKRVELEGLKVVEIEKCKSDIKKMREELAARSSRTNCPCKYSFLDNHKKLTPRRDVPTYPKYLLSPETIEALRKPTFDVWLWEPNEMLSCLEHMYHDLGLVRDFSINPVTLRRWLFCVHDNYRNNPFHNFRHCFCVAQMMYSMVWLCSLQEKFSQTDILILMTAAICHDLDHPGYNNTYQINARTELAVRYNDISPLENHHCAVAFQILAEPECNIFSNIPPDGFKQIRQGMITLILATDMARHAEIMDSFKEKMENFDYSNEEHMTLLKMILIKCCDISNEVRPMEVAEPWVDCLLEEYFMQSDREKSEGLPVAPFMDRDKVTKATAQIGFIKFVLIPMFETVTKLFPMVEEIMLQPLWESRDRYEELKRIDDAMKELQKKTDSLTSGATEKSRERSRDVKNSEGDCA
Sequence of Serine/threonine-protein kinase PAK 3 (O75914 whole entry): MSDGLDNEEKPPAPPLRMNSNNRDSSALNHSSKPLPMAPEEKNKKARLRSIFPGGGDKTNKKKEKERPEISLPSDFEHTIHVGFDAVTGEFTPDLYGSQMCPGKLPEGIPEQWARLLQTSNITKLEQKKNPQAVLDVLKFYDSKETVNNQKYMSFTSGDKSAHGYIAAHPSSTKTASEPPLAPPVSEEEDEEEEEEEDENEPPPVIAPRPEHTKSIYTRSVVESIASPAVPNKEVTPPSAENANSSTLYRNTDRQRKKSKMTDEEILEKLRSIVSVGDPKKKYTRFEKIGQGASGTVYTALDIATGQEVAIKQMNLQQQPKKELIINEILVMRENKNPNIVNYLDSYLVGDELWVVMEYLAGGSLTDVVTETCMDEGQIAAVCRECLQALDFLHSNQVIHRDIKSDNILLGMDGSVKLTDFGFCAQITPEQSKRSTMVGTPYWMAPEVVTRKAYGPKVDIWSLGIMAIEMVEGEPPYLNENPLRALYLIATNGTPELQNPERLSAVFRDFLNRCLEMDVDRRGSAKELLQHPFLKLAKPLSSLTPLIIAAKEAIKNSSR

SMILES: C[C@]12CC[C@H](OC(=O)CCCCCC(=O)NO)CC1=CCC1C2CC[C@]2(C)C(c3cccnc3)=CCC12 (some centres not stated)
pIC50 [2]: 6.22 | pIC50 [3]: 6.55 | pIC50 (Histone deacetylase 8): < 5.00

SMILES: C[C@@H]1CN(Cc2ccc(C(=O)NO)cc2)C[C@H]1c1nc2c(cnn2C2CCOCC2)c(=O)[nH]1
pIC50 [4]: < 5.00 | pIC50 (Histone deacetylase 2): 5.45 | pIC50 [5]: 6.97 | pIC50 [2]: 7.40 | pIC50 (Histone deacetylase 1): 6.23

SMILES: N#CC(C#N)=C1C=C(/C=C/c2ccc(O)c(NC(=O)CCCCCCC(=O)NO)c2)Oc2ccccc21
RBA [6]: 0.25% | RBA [7]: 0.005%

SMILES: C[C@H](c1nc2c(cnn2C2CCCC2)c(=O)[nH]1)N1CC(Oc2ncccn2)C1
pIC50 [5]: 7.49

SMILES: CC(C)NC(=O)[C@H]1CC[C@@H](n2/c(=N/C(=O)c3ccccc3)[nH]c3cc(/C=C/C(=O)NO)ccc32)CC1
pIC50 [19]: 5.99 | pIC50 [20]: 7.80 | Activity (A549): 80%

SMILES: O=C(CCCCCn1c(=O)c(-c2ccc(Cl)cc2Cl)cc2cnc(NC3CC3)nc21)NO
pIC50 [21]: 6.36 | pIC50 [22]: 7.87 | pIC50 (Histone deacetylase 2): 6.80 | pIC50 [23]: 6.72 | pIC50 [2]: 7.42 | pIC50 (Histone deacetylase 8): 6.72 | pIC50 (Histone deacetylase 3 [1]): 6.75 | pIC50 (Histone deacetylase 1): 6.63

SMILES: CC12CC3CC(C)(C1)CC(NC(=O)/C=C/c1ccc(C(=O)NO)cc1)(C3)C2
pIC50 (Histone deacetylase 5 [24]): < 5.00 | pKi [25]: 6.25 | inhibition [26]: 64.4% | pIC50 (Histone deacetylase 2): 5.10 | pIC50 (Histone deacetylase 8): 6.21 | pIC50 (Histone deacetylase 4 [16]): < 5.00 | pIC50 (Histone deacetylase 7 [27]): < 5.00 | pIC50 (Histone deacetylase 3 [1]): 5.66 | pIC50 (Histone deacetylase 9): < 5.00 | pIC50 (Histone deacetylase 1): 5.57

Other lines, results leading:

pIC50 (Histone deacetylase 3 [1]): 5.60
SMILES: CCCCN(Cc1ccc(C(=O)NO)cc1)C(=O)CCCCn1cc(COc2cccc(Cc3cnc(NC(=O)CSc4nc(C)cc(C)n4)s3)c2)nn1

pIC50 (Histone deacetylase 7 [8]): 5.52 | pIC50 (Histone deacetylase 5 [9]): < 4.28 | pIC50 (Histone deacetylase 4 [10]): < 4.00 | pIC50 [11]: 7.30 | pIC50 [12]: 8.40 | pIC50 (Histone deacetylase 3 [13]): 6.03
SMILES: CC(C)(C)c1nc(-c2cccc(NS(=O)(=O)c3c(F)cccc3F)c2F)c(-c2ccnc(NCCCCCCC(=O)NO)n2)s1

pIC50 (Histone deacetylase 11): < 5.52 | pIC50 [14]: 7.14 | pIC50 [15]: 7.14 | pIC50 (Histone deacetylase 8): 7.17 | pIC50 (Histone deacetylase 4 [16]): < 5.52 | pIC50 [17]: 5.89 | pIC50 (Histone deacetylase 1): < 5.52
SMILES: O=C(NO)c1ccc(/C=N/NC(=O)c2cc(N3CCOCC3)nc(-c3cccc(O)c3)n2)cc1

pIC50 [18]: 7.21
SMILES: CC(C)c1cc(C(=O)N(C)Cc2ccc(C(=O)NO)cc2)c(O)cc1O
